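Method: 48-hour compound exposure of cells in 96-well plates, five concentrations, linear interpolation of endpoints. At the TGI there is no net growth.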
Assays:
Test in all cases: DTP human tumour cell line panel, 48 h
DU-145 prostate = tested on: DU-145 prostate
NCI-H460 lung = tested on: NCI-H460 lung
SK-MEL-2 melanoma = tested on: SK-MEL-2 melanoma
KM12 colon = tested on: KM12 colon
UACC-257 melanoma = tested on: UACC-257 melanoma
COLO 205 colon = tested on: COLO 205 colon
HL-60(TB) leukemia = tested on: HL-60(TB) leukemia
786-0 renal = tested on: 786-0 renal
OVCAR-8 ovarian = tested on: OVCAR-8 ovarian
OVCAR-4 ovarian = tested on: OVCAR-4 ovarian
NCI/ADR-RES ovarian = tested on: NCI/ADR-RES ovarian
PC-3 prostate = tested on: PC-3 prostate
HOP-92 NSCLC = tested on: HOP-92 NSCLC
ACHN renal = tested on: ACHN renal
HOP-62 NSCLC = tested on: HOP-62 NSCLC
K-562 leukemia = tested on: K-562 leukemia
MOLT-4 leukemia = tested on: MOLT-4 leukemia
HS 578T breast = tested on: HS 578T breast
OVCAR-5 ovarian = tested on: OVCAR-5 ovarian
EKVX NSCLC = tested on: EKVX NSCLC
IGROV1 ovarian = tested on: IGROV1 ovarian
A549 NSCLC = tested on: A549 NSCLC
SNB-19 CNS = tested on: SNB-19 CNS
HCT-15 colon = tested on: HCT-15 colon
UO-31 renal = tested on: UO-31 renal
CCRF-CEM leukemia = tested on: CCRF-CEM leukemia
U251 CNS = tested on: U251 CNS
SW-620 colon = tested on: SW-620 colon
MDA-MB-231 breast = tested on: MDA-MB-231 breast
A498 renal = tested on: A498 renal
OVCAR-3 ovarian = tested on: OVCAR-3 ovarian
HT29 colon = tested on: HT29 colon
NCI-H23 lung = tested on: NCI-H23 lung
SR leukemia = tested on: SR leukemia
UACC-62 melanoma = tested on: UACC-62 melanoma
SK-OV-3 ovarian = tested on: SK-OV-3 ovarian
MDA-N = tested on: MDA-N
BT-549 breast = tested on: BT-549 breast
LOX IMVI melanoma = tested on: LOX IMVI melanoma
SF-268 CNS = tested on: SF-268 CNS
RXF 393 renal = tested on: RXF 393 renal
SN12C renal = tested on: SN12C renal
SK-MEL-5 melanoma = tested on: SK-MEL-5 melanoma
SK-MEL-28 melanoma = tested on: SK-MEL-28 melanoma
M14 melanoma = tested on: M14 melanoma
TK-10 renal = tested on: TK-10 renal
CAKI-1 renal = tested on: CAKI-1 renal
RPMI-8226 leukemia = tested on: RPMI-8226 leukemia
NCI-H522 lung = tested on: NCI-H522 lung
T-47D breast = tested on: T-47D breast
HCT-116 colon = tested on: HCT-116 colon
MDA-MB-435 = tested on: MDA-MB-435
MALME-3M melanoma = tested on: MALME-3M melanoma
SF-539 CNS = tested on: SF-539 CNS
SF-295 CNS = tested on: SF-295 CNS
MCF7 breast = tested on: MCF7 breast
HCC-2998 colon = tested on: HCC-2998 colon
SNB-75 CNS = tested on: SNB-75 CNS
NCI-H226 lung = tested on: NCI-H226 lung

COC(=O)c1cc(C)n(CN(Cn2nc(C(=O)OC)cc2C)c2ccccc2)n1
TGI (DU-145 prostate): > 100 µM
TGI (NCI-H460 lung): > 100 µM
TGI (SK-MEL-2 melanoma): > 100 µM
TGI (KM12 colon): > 100 µM
TGI (UACC-257 melanoma): > 100 µM
TGI (COLO 205 colon): 32 µM
TGI (HL-60(TB) leukemia): 47.5 µM
TGI (786-0 renal): 61 µM
TGI (OVCAR-8 ovarian): 47.9 µM
TGI (OVCAR-4 ovarian): > 100 µM
TGI (NCI/ADR-RES ovarian): 94.7 µM
TGI (PC-3 prostate): > 100 µM
TGI (HOP-92 NSCLC): > 100 µM
TGI (ACHN renal): 44.6 µM
TGI (HOP-62 NSCLC): > 100 µM
TGI (K-562 leukemia): 60.4 µM
TGI (MOLT-4 leukemia): 33.4 µM
TGI (HS 578T breast): > 100 µM
TGI (OVCAR-5 ovarian): > 100 µM
TGI (EKVX NSCLC): > 100 µM
TGI (IGROV1 ovarian): > 100 µM
TGI (A549 NSCLC): > 100 µM
TGI (SNB-19 CNS): > 100 µM
TGI (HCT-15 colon): 47.2 µM
TGI (UO-31 renal): 55.2 µM
TGI (CCRF-CEM leukemia): 54.2 µM
TGI (U251 CNS): > 100 µM
TGI (SW-620 colon): > 100 µM
TGI (MDA-MB-231 breast): > 100 µM
TGI (A498 renal): > 100 µM
TGI (OVCAR-3 ovarian): > 100 µM
TGI (HT29 colon): 36 µM
TGI (NCI-H23 lung): 69.6 µM
TGI (SR leukemia): 25.5 µM
TGI (UACC-62 melanoma): 88 µM
TGI (SK-OV-3 ovarian): > 100 µM
TGI (MDA-N): > 100 µM
TGI (BT-549 breast): > 100 µM
TGI (LOX IMVI melanoma): 42.3 µM
TGI (SF-268 CNS): > 100 µM
TGI (RXF 393 renal): 44.4 µM
TGI (SN12C renal): > 100 µM
TGI (SK-MEL-5 melanoma): > 100 µM
TGI (SK-MEL-28 melanoma): > 100 µM
TGI (M14 melanoma): > 100 µM
TGI (TK-10 renal): > 100 µM
TGI (CAKI-1 renal): > 100 µM
TGI (RPMI-8226 leukemia): 44.6 µM
TGI (NCI-H522 lung): > 100 µM
TGI (T-47D breast): 88.3 µM
TGI (HCT-116 colon): 40.9 µM
TGI (MDA-MB-435): > 100 µM
TGI (MALME-3M melanoma): > 100 µM
TGI (SF-539 CNS): 36.3 µM
TGI (SF-295 CNS): > 100 µM
TGI (MCF7 breast): 93.5 µM

OC/C=C/[C@H](OCc1ccccc1)[C@H](/C=C/CO)OCc1ccccc1
TGI (DU-145 prostate): > 100 µM
TGI (NCI-H460 lung): > 100 µM
TGI (HCC-2998 colon): > 100 µM
TGI (SK-MEL-2 melanoma): > 100 µM
TGI (KM12 colon): > 100 µM
TGI (UACC-257 melanoma): > 100 µM
TGI (COLO 205 colon): > 100 µM
TGI (786-0 renal): > 100 µM
TGI (OVCAR-8 ovarian): > 100 µM
TGI (OVCAR-4 ovarian): 95 µM
TGI (NCI/ADR-RES ovarian): > 100 µM
TGI (PC-3 prostate): > 100 µM
TGI (HOP-92 NSCLC): > 100 µM
TGI (ACHN renal): > 100 µM
TGI (HOP-62 NSCLC): > 100 µM
TGI (K-562 leukemia): 54.7 µM
TGI (MOLT-4 leukemia): 40 µM
TGI (HS 578T breast): > 100 µM
TGI (OVCAR-5 ovarian): > 100 µM
TGI (EKVX NSCLC): > 100 µM
TGI (IGROV1 ovarian): > 100 µM
TGI (A549 NSCLC): > 100 µM
TGI (SNB-19 CNS): 85.9 µM
TGI (HCT-15 colon): > 100 µM
TGI (UO-31 renal): > 100 µM
TGI (CCRF-CEM leukemia): 51.4 µM
TGI (U251 CNS): 69.1 µM
TGI (SW-620 colon): > 100 µM
TGI (MDA-MB-231 breast): > 100 µM
TGI (A498 renal): > 100 µM
TGI (OVCAR-3 ovarian): > 100 µM
TGI (HT29 colon): 59.9 µM
TGI (NCI-H23 lung): > 100 µM
TGI (SR leukemia): 39.6 µM
TGI (UACC-62 melanoma): > 100 µM
TGI (SK-OV-3 ovarian): > 100 µM
TGI (MDA-N): > 100 µM
TGI (BT-549 breast): > 100 µM
TGI (LOX IMVI melanoma): 47.4 µM
TGI (SF-268 CNS): 94.6 µM
TGI (RXF 393 renal): > 100 µM
TGI (SN12C renal): > 100 µM
TGI (SK-MEL-5 melanoma): > 100 µM
TGI (SK-MEL-28 melanoma): > 100 µM
TGI (M14 melanoma): > 100 µM
TGI (TK-10 renal): > 100 µM
TGI (CAKI-1 renal): > 100 µM
TGI (SNB-75 CNS): > 100 µM
TGI (RPMI-8226 leukemia): 42.8 µM
TGI (NCI-H522 lung): > 100 µM
TGI (T-47D breast): 88.8 µM
TGI (HCT-116 colon): > 100 µM
TGI (MDA-MB-435): > 100 µM
TGI (MALME-3M melanoma): > 100 µM
TGI (SF-539 CNS): > 100 µM
TGI (SF-295 CNS): > 100 µM
TGI (NCI-H226 lung): > 100 µM
TGI (MCF7 breast): > 100 µM

CCOC(=O)Nc1cc(NC(/C=N/NC(C)=O)C(=O)OCC)c(OC)cc1NC(C)=O (centres undefined)
TGI (DU-145 prostate): > 100 µM
TGI (NCI-H460 lung): > 100 µM
TGI (HCC-2998 colon): > 100 µM
TGI (SK-MEL-2 melanoma): > 100 µM
TGI (KM12 colon): > 100 µM
TGI (UACC-257 melanoma): > 100 µM
TGI (COLO 205 colon): > 100 µM
TGI (786-0 renal): > 100 µM
TGI (OVCAR-8 ovarian): > 100 µM
TGI (OVCAR-4 ovarian): > 100 µM
TGI (NCI/ADR-RES ovarian): > 100 µM
TGI (PC-3 prostate): > 100 µM
TGI (HOP-92 NSCLC): > 100 µM
TGI (ACHN renal): > 100 µM
TGI (HOP-62 NSCLC): > 100 µM
TGI (K-562 leukemia): > 100 µM
TGI (MOLT-4 leukemia): > 100 µM
TGI (HS 578T breast): > 100 µM
TGI (OVCAR-5 ovarian): > 100 µM
TGI (EKVX NSCLC): > 100 µM
TGI (IGROV1 ovarian): > 100 µM
TGI (A549 NSCLC): > 100 µM
TGI (SNB-19 CNS): > 100 µM
TGI (HCT-15 colon): > 100 µM
TGI (UO-31 renal): > 100 µM
TGI (CCRF-CEM leukemia): > 100 µM
TGI (U251 CNS): > 100 µM
TGI (SW-620 colon): > 100 µM
TGI (MDA-MB-231 breast): > 100 µM
TGI (A498 renal): > 100 µM
TGI (OVCAR-3 ovarian): > 100 µM
TGI (HT29 colon): > 100 µM
TGI (NCI-H23 lung): > 100 µM
TGI (SR leukemia): > 100 µM
TGI (UACC-62 melanoma): > 100 µM
TGI (SK-OV-3 ovarian): > 100 µM
TGI (MDA-N): > 100 µM
TGI (BT-549 breast): > 100 µM
TGI (SF-268 CNS): > 100 µM
TGI (RXF 393 renal): > 100 µM
TGI (SN12C renal): > 100 µM
TGI (SK-MEL-5 melanoma): > 100 µM
TGI (SK-MEL-28 melanoma): > 100 µM
TGI (M14 melanoma): > 100 µM
TGI (TK-10 renal): > 100 µM
TGI (CAKI-1 renal): > 100 µM
TGI (SNB-75 CNS): > 100 µM
TGI (RPMI-8226 leukemia): > 100 µM
TGI (T-47D breast): > 100 µM
TGI (HCT-116 colon): > 100 µM
TGI (MDA-MB-435): > 100 µM
TGI (MALME-3M melanoma): > 100 µM
TGI (SF-295 CNS): > 100 µM
TGI (NCI-H226 lung): > 100 µM
TGI (MCF7 breast): > 100 µM

Reference: PubChem BioAssay (NCI)
